# In patent US20260125379A1, “PRODRUG OF JAK KINASE INHIBITOR” (E-nitiate Biopharmaceuticals (Hangzhou) Co., Ltd, priority 2022, published 2026):
# Where a name gives a salt, the structure may show the parent alone.
# Tests used:
# JAK1 = JAK1 (Homo sapiens, UniProt P23458); assay: JAK1 kinase inhibition assay (ULight-JAK-1 substrate, Eu-labeled anti-phosphotyrosine antibody); type: biochemical; settings: JAK1 10 nM, substrate 50 nM, ATP 40 μM, 2 hours at room temperature
# Protocol: (§1) Example A: Activity Detection of JAK Kinase Small Molecule Inhibitors
# (§2) Kinase reaction buffer was prepared with the following components: 50 mM HEPES, pH 7.5, 1 mM EGTA, 10 mM MgCl2, 2 mM DTT, 0.01% Tween20.
# (§3) Detection buffer was prepared by diluting 10× detection buffer to IX with deionized water in a ratio of 9:1.
# (§4) JAK kinase was diluted with kinase reaction buffer to 4× final concentration (JAK1: 40 nM, JAK2: 0.5 nM).
# (§5) ULight™-JAK-1 (Tyr1023) substrate was diluted with kinase reaction buffer to 200 nM (final concentration: 50 nM).
# (§6) ATP was diluted with kinase reaction buffer to 4× final concentration (JAK1: 160 μM, JAK2: 40 μM).
# (§7) Compound to be tested was dissolved with DMSO to obtain a 10 mM storage solution, which was diluted to desired concentrations by a 3-fold gradient; for each compound 10 concentration points were set, and the final concentration of the compound to be tested ranges from 10 μM to 0.5 nM.
# (§8) EDTA was dissolved with 1× detection buffer to 40 mM (EDTA final concentration: 10 mM).
# (§9) Eu-labeled detection antibody (anti-phosphotyrosine (PT66)) was diluted with 1× detection buffer to 8 nM (final antibody concentration: 2 nM).
# (§10) (1) To a 384-well plate, 2.5 μL 4× kinase solution and 2.5 μL 4× test compound solution with different concentrations that have been diluted were added successively, each concentration was set in duplicate, and an enzyme solution blank control and a negative control (DMSO group) were also set.
# (§11) (2) The 384-well plate was shaken to mix enzyme and compound well, and then centrifuged at 1000 rpm for 1 minute, and incubated at room temperature for 60 minutes.
# (§12) (3) 2.5 μL 4× substrate solution was added to the 384-well plate and centrifuged at 1000 rpm for 1 minute.
# (§13) (4) 2.5 μL 4× ATP solution was added to the 384-well plate and centrifuged at 1000 rpm for 1 minute, and then enzyme reaction was initiated.
# (§14) (5) For JAK1 the reaction was carried out at room temperature for 2 hours, and for JAK2 the reaction was carried out at room temperature for 1 hour.
# (6) For the JAK1 reaction, the final concentrations of components are as follows: JAK1: 10 nM, substrate: 50 nM, ATP: 40 μM; and the final concentration of the tested compounds ranges from 10μ M to 0.5 nM.
# (§15) (7) After the enzyme reaction was completed, 5 μL 4× enzyme reaction termination solution was added to each well of the 384-well plate, and then centrifuged at 1000 rpm for 1 minute and incubated at room temperature for 5 minutes.
# (§16) (8) 5 μL 4× detection antibody solution (the final concentration of detection antibody is 2 nM) was added to each well of the 384-well plate, and then centrifuged at 1000 rpm for 1 minute and incubated at room temperature for 1 hour.
# (§17) (9) At the antibody incubation was completed, signal value of each well was measured on a Envision plate reader.
# (§18) (1) The percentage inhibition rate corresponding to each concentration of the tested compound was calculated on the basis that the blank control of enzyme solution corresponds to 100% and the negative control (DMSO group) corresponds to 0%.
# (§19) (2) A nonlinear regression analysis of the logarithm of the concentration of the detected compound and the corresponding percentage inhibition rate was performed in GraphPad Prism software to obtain the half-inhibiting concentration (IC50) of the tested compound.
# JAK2 = JAK2 (Homo sapiens, UniProt O60674); assay: JAK2 kinase inhibition assay (ULight-JAK-1 substrate, Eu-labeled anti-phosphotyrosine antibody); type: biochemical; settings: JAK2 0.125 nM, substrate 50 nM, ATP 10 μM, 1 hour at room temperature
# JAK2, sequence (O60674 whole entry, species assumed): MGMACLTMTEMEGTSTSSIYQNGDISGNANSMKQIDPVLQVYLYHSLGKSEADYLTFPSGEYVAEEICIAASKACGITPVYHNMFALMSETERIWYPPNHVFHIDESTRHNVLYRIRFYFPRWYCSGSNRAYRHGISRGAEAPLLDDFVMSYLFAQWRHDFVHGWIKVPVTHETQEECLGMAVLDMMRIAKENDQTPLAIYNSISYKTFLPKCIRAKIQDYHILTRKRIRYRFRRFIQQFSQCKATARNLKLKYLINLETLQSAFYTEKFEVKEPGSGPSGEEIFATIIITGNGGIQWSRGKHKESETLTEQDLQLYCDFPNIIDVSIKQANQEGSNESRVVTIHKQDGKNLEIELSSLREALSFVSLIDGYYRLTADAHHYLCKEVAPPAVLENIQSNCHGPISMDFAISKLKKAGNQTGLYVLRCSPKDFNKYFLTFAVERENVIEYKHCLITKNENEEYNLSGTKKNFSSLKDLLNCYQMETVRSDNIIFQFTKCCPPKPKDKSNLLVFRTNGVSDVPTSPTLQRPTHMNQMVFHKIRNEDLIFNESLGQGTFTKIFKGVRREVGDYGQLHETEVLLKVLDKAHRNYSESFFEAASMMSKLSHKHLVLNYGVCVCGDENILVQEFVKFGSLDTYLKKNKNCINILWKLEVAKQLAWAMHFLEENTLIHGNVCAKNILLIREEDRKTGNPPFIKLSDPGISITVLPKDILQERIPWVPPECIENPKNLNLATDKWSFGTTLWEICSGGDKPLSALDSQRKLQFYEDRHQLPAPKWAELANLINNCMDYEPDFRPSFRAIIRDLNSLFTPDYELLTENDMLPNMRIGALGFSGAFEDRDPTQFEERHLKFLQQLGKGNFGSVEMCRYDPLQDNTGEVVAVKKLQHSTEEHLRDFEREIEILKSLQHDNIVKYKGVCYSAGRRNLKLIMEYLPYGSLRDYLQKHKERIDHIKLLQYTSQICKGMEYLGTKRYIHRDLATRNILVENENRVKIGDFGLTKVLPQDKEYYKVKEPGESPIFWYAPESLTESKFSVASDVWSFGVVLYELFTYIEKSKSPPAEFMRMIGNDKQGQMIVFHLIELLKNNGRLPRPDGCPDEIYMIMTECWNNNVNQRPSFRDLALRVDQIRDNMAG
# Protocol: as §1, §2, §3, §4, §5, §6, §7, §8, §9, §10, §11, §12, §13, §14
# For the JAK2 reaction, the final concentrations of component are as follows: JAK2: 0.125 nM, substrate: 50 nM, ATP: 10 μM; and the final concentration of the tested compound ranges from 10 μM to 0.5 nM.
# as §15, §16, §17, §18, §19
# JAK1, sequence (P23458 whole entry, species assumed): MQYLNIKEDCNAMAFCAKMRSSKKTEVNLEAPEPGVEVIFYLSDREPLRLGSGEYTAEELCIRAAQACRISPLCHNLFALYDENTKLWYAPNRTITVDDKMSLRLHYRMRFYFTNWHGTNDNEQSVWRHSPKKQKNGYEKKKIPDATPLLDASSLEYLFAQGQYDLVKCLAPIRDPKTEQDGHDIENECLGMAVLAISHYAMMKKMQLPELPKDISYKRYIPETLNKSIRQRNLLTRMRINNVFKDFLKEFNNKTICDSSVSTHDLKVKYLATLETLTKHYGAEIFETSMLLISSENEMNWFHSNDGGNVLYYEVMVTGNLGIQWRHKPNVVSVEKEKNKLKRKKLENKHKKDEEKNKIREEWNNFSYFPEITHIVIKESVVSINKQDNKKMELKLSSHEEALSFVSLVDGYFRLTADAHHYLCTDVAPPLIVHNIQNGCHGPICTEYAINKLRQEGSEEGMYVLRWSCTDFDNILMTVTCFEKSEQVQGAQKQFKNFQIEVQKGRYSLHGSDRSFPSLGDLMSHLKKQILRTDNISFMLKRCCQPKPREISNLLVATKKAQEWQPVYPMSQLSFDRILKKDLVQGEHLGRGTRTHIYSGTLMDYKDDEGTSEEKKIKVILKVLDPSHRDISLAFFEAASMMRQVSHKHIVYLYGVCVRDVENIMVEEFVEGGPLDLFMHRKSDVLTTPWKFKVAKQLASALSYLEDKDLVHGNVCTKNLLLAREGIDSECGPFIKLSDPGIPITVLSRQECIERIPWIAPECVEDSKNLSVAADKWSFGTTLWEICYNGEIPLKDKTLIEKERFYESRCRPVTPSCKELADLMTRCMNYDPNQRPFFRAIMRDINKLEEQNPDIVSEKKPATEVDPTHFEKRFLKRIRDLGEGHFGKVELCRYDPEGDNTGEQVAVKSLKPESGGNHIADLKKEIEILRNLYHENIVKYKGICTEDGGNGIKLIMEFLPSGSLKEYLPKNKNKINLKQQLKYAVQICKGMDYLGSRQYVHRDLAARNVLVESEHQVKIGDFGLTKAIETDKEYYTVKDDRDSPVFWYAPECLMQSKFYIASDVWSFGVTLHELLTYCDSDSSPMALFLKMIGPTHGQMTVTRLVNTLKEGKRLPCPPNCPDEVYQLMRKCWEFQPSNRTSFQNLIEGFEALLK
SMILES,IC50 (JAK1) [nM],IC50 (JAK2) [nM]
C[C@@H](OC(=O)Nc1ccccc1/N=N/c1ccc(O)c(C(=O)O)c1)c1nc2cnc3[nH]ccc3c2n1N1CCC(CC#N)CC1 [Compound A4],105,100
"C[C@@H](OC(=O)CCCCO[N+](=O)[O-])c1nc2cnc3[nH]ccc3c2n1N1CCC(CC#N)CC1 [Compound A6, (R)-1-(1-(4-(cyanomethyl)piperidin-1-yl)-1,6-dihydroimidazo[4,5-d]pyrrolo[2,3-b]pyridin-2-yl)ethyl 5-(nitrooxy)valerate]",31.3,40.3
"C[C@@H](OC(=O)CN(C)C)c1nc2cnc3[nH]ccc3c2n1N1CCC(CC#N)CC1 [Compound A7, (R)-1-(1-(4-(cyanomethyl)piperidin-1-yl)-1,6-dihydroimidazo[4,5-d]pyrrolo[2,3-b]pyridin-2-yl)ethyl dimethylglycinate]",3.85,57.8
"CC(C)[C@@H](N)C(=O)O[C@H](C)c1nc2cnc3[nH]ccc3c2n1N1CCC(CC#N)CC1 [Compound A8, (R)-1-(1-(4-(cyanomethyl)piperidin-1-yl)-1,6-dihydroimidazo[4,5-d]pyrrolo[2,3-b]pyridin-2-yl)ethyl D-valinate]",5.86,72
"CC(C)[C@H](N)C(=O)O[C@H](C)c1nc2cnc3[nH]ccc3c2n1N1CCC(CC#N)CC1 [Compound A9, (R)-1-(1-(4-cyanomethylpiperidin-1-yl)-1,6-dihydroimidazo[4,5-d]pyrrolo[2,3-b]pyridin-2-yl)ethyl L-valinate]",3.05,56.4
"COC(=O)/C=C/C(=O)OCO[C@H](C)c1nc2cnc3[nH]ccc3c2n1N1CCC(CC#N)CC1 [Compound A10, (R)-(1-(1-(4-(cyanomethyl)piperidin-1-yl)-1,6-dihydroimidazo[4,5-d]pyrrolo[2,3-b]pyridin-2-yl)ethoxy)methyl monomethyl fumarate]",96.7,21.1
"CSCC1(C)CCN(n2c(CO[N+](=O)[O-])nc3cnc4[nH]ccc4c32)CC1 [Compound A11, (1-(4-Methyl-4-((methylthio)methyl)piperidin-1-yl)-1,6-dihydroimidazo[4,5-d]pyrrolo[2,3-b]pyridin-2-yl)methyl nitrate]",5.62,4.19
"CSCC1(C)CCN(n2c(CCO[N+](=O)[O-])nc3cnc4[nH]ccc4c32)CC1 [Compound A12, 2-(1-(4-Methyl-4-((methylthio)methyl)piperidin-1-yl)-1,6-dihydroimidazo[4,5-d]pyrrolo[2,3-b]pyridin-2-yl)ethyl nitrate]",38.9,37.9
"Nc1nc2cnc3[nH]ccc3c2n1N1CCCCC1 [Compound B1, 1-(Piperidin-1-yl)-1,6-dihydroimidazo[4,5-d]pyrrolo[2,3-b]pyridin-2-amine]",2.15,38.7
"N#CC[C@H]1CC[C@H](n2c(/N=N/c3ccc(O)c(C(=O)N[C@H](CCCCN)C(=O)O)c3)nc3cnc4[nH]ccc4c32)CC1 [Compound B9, (5-((E)-(1-((1R,4R)-4-(cyanomethyl)cyclohexyl)-1,6-dihydroimidazo[4,5-d]pyrrolo[2,3-b]pyridin-2-yl)diazenyl)-2-hydroxybenzoyl)-D-lysine]",2.52,6.62

# These reach a lower IC50 (JAK1). Values come first.
IC50 (JAK1) [nM],IC50 (JAK2) [nM],SMILES
1.83,4.04,"CC(=O)O[C@H](C)c1nc2cnc3[nH]ccc3c2n1N1CCC(CC#N)CC1 [Compound A5, (R)-1-(1-(4-(cyanomethyl)piperidin-1-yl)-1,6-dihydroimidazo[4,5-d]pyrrolo[2,3-b]pyridin-2-yl)ethyl acetate]"
0.045,0.1,"N#CCS(=O)(=O)NCC1CCN(n2c(N)nc3cnc4[nH]ccc4c32)CC1 [Compound B2, N-((1-(2-aminoimidazo[4,5-d]pyrrolo[2,3-b]pyridin-1(6H)-yl)-piperidin-4-yl)methyl)-1-cyano methanesulfonamide]"
0.47,1.74,"N#CCC1CCN(n2c(N)nc3cnc4ccsc4c32)CC1 [Compound B4, 2-(1-(2-amino-1H-imidazo[4,5-d]thieno[3,2-b]pyridin-1-yl)piperidin-4-yl)acetonitrile]"
1.33,7.15,"N#CC[C@H]1CC[C@H](n2c(N)nc3cnc4ccoc4c32)CC1 [Compound B5, 2-((1R,4R)-4-(2-amino-1H-furo[3,2-b]imidazo[4,5-d]pyridin-1-yl)cyclohexyl)acetonitrile]"
1,0.27,"N#CCC1CCN(n2c(/N=N/c3ccc(O)c(C(=O)O)c3)nc3cnc4[nH]ccc4c32)CC1 [Compound B7, (E)-5-((1-(4-cyanomethylpiperidin-1-yl)-1,6-dihydroimidazo[4,5-d]pyrrolo[2,3-b]pyridin-2-yl)diazenyl)-2-hydroxybenzoic acid]"
1.75,4.26,"N#CC[C@H]1CC[C@H](n2c(/N=N/c3ccc(O)c(C(=O)N[C@H](CC(=O)O)C(=O)O)c3)nc3cnc4[nH]ccc4c32)CC1 [Compound B8, (5-((E)-(1-((1R,4R)-4-(cyanomethyl)cyclohexyl)-1,6-dihydroimidazo[4,5-d]pyrrolo[2,3-b]pyridin-2-yl)diazenyl)-2-hydroxybenzoyl)-D-aspartic acid]"
1.34,0.28,"N#CC[C@H]1CC[C@H](n2c(/N=N/c3ccc(O)c(C(=O)N[C@H](CCC(=O)O)C(=O)O)c3)nc3cnc4[nH]ccc4c32)CC1 [Compound B10, (5-((E)-(1-((1R,4R)-4-(cyanomethyl)cyclohexyl)-1,6-dihydroimidazo[4,5-d]pyrrolo[2,3-b]pyridin-2-yl)diazenyl)-2-hydroxybenzoyl)-D-glutamic acid]"
1.6,3.38,"N#CC[C@H]1CC[C@H](n2c(/N=N/c3ccc(O)c(C(=O)N[C@H](CCCN=C(N)N)C(=O)O)c3)nc3cnc4[nH]ccc4c32)CC1 [Compound B11, (R)-2-(5-((E)-(1-((1R,4R)-4-(cyanomethyl)cyclohexyl)-1,6-dihydroimidazo[4,5-d]pyrrolo[2,3-b]pyridin-2-yl)diazenyl)-2-hydroxybenzamido)-5-((diaminomethylene)amino)valeric acid]"
1.02,0.47,"N#CC[C@H]1CC[C@H](n2c(/N=N/c3ccc(O)c(C(=O)NCCS(=O)(=O)O)c3)nc3cnc4[nH]ccc4c32)CC1 [Compound B12, 2-(5-((E)-(1-((1R,4R)-4-(cyanomethyl)cyclohexyl)-1,6-dihydroimidazo[4,5-d]pyrrolo[2,3-b]pyridin-2-yl)diazenyl)-2-hydroxybenzamido) ethan-1-sulfonic acid]"
